Reference: patent publication US20230055657A1, “COMBINATION TREATMENT OF LIVER DISEASES USING INTEGRIN INHIBITORS” (NOVARTIS AG, priority 2019, published 2023)
“Also recorded” adds a separate entry of the source.

How the values were obtained:
CDAHFD NASH mouse model = CDAHFD NASH mouse model (prophylactic, therapeutic and 10-week studies); type: in vivo
Experimental: CDAHFD injury is a rodent model of NASH displaying liver fat accumulation, inflammation, and fibrosis (Matsumoto 2013). Three types of studies were performed: 1) prophylactic, Compound 1 in an abbreviated 3-week CDAHFD model; 2) therapeutic, Compound 1 for 6 weeks in the 11- to 12-week CDAHFD model; and 3) Compound 1 for 4 weeks in a 10-week CDAHFD model.
Compound 1 was tested therapeutically in 11- to 12-week CDAHFD injury studies at medium, high and highest doses across 3 independent studies.
Although pan-αv inhibition with CWHM12 reduced pSMAD and OHP levels, selective αvβ1 inhibition was sufficient for antifibrotic activity.

[1] = tested on: human cirrhotic NASH precision cut liver slices; assay: Profibrotic gene expression and fibrosis biomarkers in precision cut liver slices; type: cell-based
Experimental: The ability of Compound 1 to inhibit the expression of profibrotic genes and decrease biomarkers of fibrosis was measured in precision cut liver slices generated using cirrhotic liver tissues from NASH patient explants and from rodent models of liver fibrosis and NASH.
Data are mean +/−standard deviation from the 5 cirrhotic NASH patients. DMSO was used as the solvent and utilized at a constant concentration (0.1%) across the different groups. […] was used as a positive control.

[2] = tested on: murine CCl4 model of liver fibrosis; assay: 3-week murine CCl4 model of liver fibrosis; type: in vivo, mouse
Experimental: Antifibrotic activity of Compound 1 was established in an abbreviated, 3-week, murine CCl4 model of liver fibrosis. CCl4 is a hepatotoxin that when injected into mice results in liver fibrosis (Constandinou 2003). Compound 1 was dosed during the final week of injury.

healthy volunteers = assay: First-in-human study of safety, tolerability, PK and PD; type: in vivo; conditions: single and multiple ascending dose, thus far
Text: Part A (Single Ascending Dose Study) Part A of the study was a first-in-human, randomized, double-blind, placebo-controlled, parallel-group, single ascending dose study of the safety, tolerability, and PK of Compound 1 in a maximum of 50 healthy male and female (non-childbearing potential) participants. Forty participants will be enrolled in up to 5 sequential cohorts.
Part B (Multiple Ascending Dose Study) Part B of the study is on-going and was initiated after the first 2 cohorts in Part A of the study had been completed. The doses in Part B were determined from Part A of the study and were not higher than the highest dose that was administered in Part A of the study.
Part B of the study is a randomized, double-blind, placebo-controlled, parallel-group, multiple ascending dose study of the PK, PD, safety, and tolerability of Compound 1 administered for 7 days in a maximum of 40 healthy male and female (non-childbearing potential) participants.

[3] = therapeutic, 11- to 12-week, high and highest doses

| SMILES | reduction of OHP concentrations (CDAHFD NASH mouse model; 10-week CDAHFD study) [%] | reduction of pSMAD3 levels (CDAHFD NASH mouse model; 10-week CDAHFD study) [%] | TIMP1 gene expression (in words) ([1]; 5 cirrhotic NASH patient explants, after two days of treatment) | COL1A1 gene expression (in words) ([1]; fibrotic liver tissue from 5 patients with NASH) | reduction of level of FBN-C in culture media ([1]; significant) [%] | hepatic Col1α1, Col1α1, and Col3α1 expression ([2]; all doses) | levels of pSMAD3/SMAD3 in the liver ([2]; all doses, dosed during final week of injury) | antifibrotic activity ([2]; liver fibrosis (CCl4)) | antifibrotic activity (CDAHFD NASH mouse model; NASH (CDAHFD)) | expression of Ehhadh (CDAHFD NASH mouse model; prophylactic, 3-week, high dose, both studies) | gene expression of collagens (CDAHFD NASH mouse model; prophylactic, 3-week, high dose, one of the studies) | collagen area (histological analysis) (CDAHFD NASH mouse model; therapeutic, 11- to 12-week) | composite fibrosis score (second harmonic generation imaging): quantity and quality of collagen fibers (CDAHFD NASH mouse model; therapeutic, 11- to 12-week) | gene expression of Acox1 and Ehhadh (CDAHFD NASH mouse model; therapeutic, 11- to 12-week) | collagen gene expression (Col1α1 and Col3α1) (CDAHFD NASH mouse model; [3]) | gene expression of profibrotic markers Ctgf, Mmp-2 and Timp1 (CDAHFD NASH mouse model; [3]) | tolerability (healthy volunteers) |
| --- | --- | --- | --- | --- | --- | --- | --- | --- | --- | --- | --- | --- | --- | --- | --- | --- | --- |
| CC(C)(C)c1cc(Br)cc([C@H](CC(=O)O)NC(=O)CNC(=O)c2cc(O)cc(NC3=NCC(O)CN3)c2)c1 (stereo partly drawn) [CWHM12, (3S)-N-[3-hydroxy-5-[(1,4,5,6-tetrahydro-5-hydroxy-2-pyrimidinyl)amino]benzoyl]glycyl-3-[3-bromo-5-(1,1-dimethylethyl)phenyl]β-alanine, reference compound] | 30 | 61 |  |  |  |  |  |  |  |  |  |  |  |  |  |  |  |
| CC1(C(=O)N[C@@H](CCCCCCCc2ccc3c(n2)NCCC3)C(=O)O)CCOCC1 [Compound 1, (S)-2-(4-methyltetrahydro-2H-pyran-4-carboxamido)-9-(5,6,7,8-tetrahydro-1,8-naphthyridin-2-yl)nonanoic acid] |  |  | reduced; also recorded: decreased expression; also recorded: reduces expression | decreased expression; also recorded: reduces expression | 26 | significant reduction; also recorded: significantly reduced | significantly reduced | potent and dose-dependent antifibrotic activity | effective antifibrotic agent; also recorded: potent and dose-dependent antifibrotic activity | significantly elevated | Significantly reduced | significant reduction | significant reduction | significantly increased | significantly reduced | significantly reduced | well tolerated |
